Data published in PubChem BioAssay AID328 (DTP/NCI, 2004).
Several values for one entry are separate records, joined by “and”; a condition that tells them apart may be missing. Equal values may be shown once. Inconclusive results and toxic doses are left out.

Test system: BDF1 mice, P388 leukemia ip, median survival T/C
Assay: NCI In Vivo Anticancer Drug Screen. Data for tumor model P388 Leukemia (intraperitoneal) in B6D2F1 (BDF1) mice
Settings: endpoint: median survival time, higher = longer survival
In short: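 In tumour-bearing mice, survival after compound treatment is set against the vehicle group and given as a quotient.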

In the case of `COc1cc2cc3c4cc(OC)c(OC)cc4cc[n+]3c(C)c2cc1OC` (tested in a mixture with another compound), the T/C (dose: 8.0 mg/kg/injection, schedule: Q01DX008 (ip), vehicle: other) is reported as 156 % of control, the T/C (dose: 8.0 mg/kg/injection, schedule: Q01DX009 (ip), vehicle: clinical formulation) is reported as 155 % of control and the T/C (dose: 8.0 mg/kg/injection, schedule: Q03HX008 (ip), vehicle: other) is reported as 111 % of control. The T/C (dose: 9.3 mg/kg/injection, schedule: Q01DX009 (ip), vehicle: saline) was 150 % of control, the T/C (dose: 12.5 mg/kg/injection, schedule: Q04DX003 (ip), vehicle: other) was 121 % of control and the T/C (dose: 16.0 mg/kg/injection, schedule: Q01DX008 (ip), vehicle: other) was 154 % of control. The T/C (dose: 16.0 mg/kg/injection, schedule: Q01DX008 (ip), vehicle: water) was 163 % of control, the T/C (dose: 16.0 mg/kg/injection, schedule: Q01DX009 (ip), vehicle: Klucel (hydroxypropylcellulose) (HPC)) was 157 % of control and the T/C (dose: 16.0 mg/kg/injection, schedule: Q01DX009 (ip), vehicle: clinical formulation) was 161 % of control. For the same compound, the T/C (dose: 16.0 mg/kg/injection, schedule: Q01DX009 (oral), vehicle: other) was 94 % of control, the T/C (dose: 16.0 mg/kg/injection, schedule: Q01DX009 (sc), vehicle: other) was 101 % of control and the T/C (dose: 16.0 mg/kg/injection, schedule: Q03HX016 (ip), vehicle: other) was 153 % of control. For the same compound, the T/C (dose: 16.0 mg/kg/injection, schedule: Q03HX024 (ip), vehicle: other) was 174 % of control, the T/C (dose: 32.0 mg/kg/injection, schedule: Q01DX008 (ip), vehicle: Klucel (hydroxypropylcellulose) (HPC)) was 182 % of control and the T/C (dose: 32.0 mg/kg/injection, schedule: Q01DX008 (ip), vehicle: other) was 167 % of control. The T/C (dose: 32.0 mg/kg/injection, schedule: Q01DX008 (ip), vehicle: water) was 163 % of control, the T/C (dose: 32.0 mg/kg/injection, schedule: Q01DX009 (ip), vehicle: Klucel (hydroxypropylcellulose) (HPC)) was 186 % of control and the T/C (dose: 32.0 mg/kg/injection, schedule: Q01DX009 (ip), vehicle: clinical formulation) was 211 % of control. For the same compound, the T/C (dose: 32.0 mg/kg/injection, schedule: Q01DX009 (oral), vehicle: other) was 103 % of control, the T/C (dose: 32.0 mg/kg/injection, schedule: Q01DX009 (sc), vehicle: other) was 115 % of control and the T/C (dose: 32.0 mg/kg/injection, schedule: Q03HX016 (ip), vehicle: other) was 182 % of control. The T/C (dose: 32.0 mg/kg/injection, schedule: Q03HX024 (ip), vehicle: other) was 190 % of control, the T/C (dose: 37.5 mg/kg/injection, schedule: Q01DX009 (ip), vehicle: saline) was 175 % of control and the T/C (dose: 37.5 mg/kg/injection, schedule: Q04DX003 (ip), vehicle: saline) was 162 % of control. The T/C (dose: 46.7 mg/kg/injection, schedule: Q04DX003 (ip), vehicle: alkali diluted with saline) was 165 % of control, the T/C (dose: 50.0 mg/kg/injection, schedule: Q04DX002 (ip), vehicle: saline) was 154 % of control and the T/C (dose: 50.0 mg/kg/injection, schedule: Q04DX003 (ip), vehicle: saline) was 157 % of control. The T/C (dose: 50.0 mg/kg/injection, schedule: Q04DX003 (ip), vehicle: water) was 158 % of control, the T/C (dose: 64.0 mg/kg/injection, schedule: Q01DX001 (ip), vehicle: other) was 120 % of control and the T/C (dose: 64.0 mg/kg/injection, schedule: Q01DX001 (oral), vehicle: other) was 100 % of control. The T/C (dose: 64.0 mg/kg/injection, schedule: Q01DX001 (sc), vehicle: other) was 103 % of control, the T/C (dose: 64.0 mg/kg/injection, schedule: Q01DX008 (ip), vehicle: Klucel (hydroxypropylcellulose) (HPC)) was 208 % of control and the T/C (dose: 64.0 mg/kg/injection, schedule: Q01DX008 (ip), vehicle: other) was 206 % of control. The T/C (dose: 64.0 mg/kg/injection, schedule: Q01DX008 (ip), vehicle: water) was 185 % of control, the T/C (dose: 64.0 mg/kg/injection, schedule: Q01DX009 (ip), vehicle: Klucel (hydroxypropylcellulose) (HPC)) was 182 % of control and 203 % of control and the T/C (dose: 64.0 mg/kg/injection, schedule: Q01DX009 (ip), vehicle: clinical formulation) was 194 % of control. For the same compound, the T/C (dose: 64.0 mg/kg/injection, schedule: Q01DX009 (oral), vehicle: other) was 107 % of control, the T/C (dose: 64.0 mg/kg/injection, schedule: Q04DX003 (ip), vehicle: other) was 161 % of control and 163 % of control and the T/C (dose: 64.0 mg/kg/injection, schedule: Q04DX003 (ip), vehicle: water) was 159 % of control. For the same compound, the T/C (dose: 75.0 mg/kg/injection, schedule: Q01DX001 (ip), vehicle: saline) was 154 % of control, the T/C (dose: 75.0 mg/kg/injection, schedule: Q01DX009 (ip), vehicle: saline) was 183 % of control and the T/C (dose: 75.0 mg/kg/injection, schedule: Q04DX003 (ip), vehicle: saline) was 158 % of control. For the same compound, the T/C (dose: 77.8 mg/kg/injection, schedule: Q04DX003 (ip), vehicle: alkali diluted with saline) was 165 % of control, the T/C (dose: 86.4 mg/kg/injection, schedule: Q04DX003 (ip), vehicle: other) was 193 % of control and the T/C (dose: 100.0 mg/kg/injection, schedule: Q04DX002 (ip), vehicle: saline) was 154 % of control and 169 % of control. The T/C (dose: 100.0 mg/kg/injection, schedule: Q04DX003 (ip), vehicle: other) was 155 % of control, the T/C (dose: 100.0 mg/kg/injection, schedule: Q04DX003 (ip), vehicle: water) was 200 % of control and the T/C (dose: 128.0 mg/kg/injection, schedule: Q01DX001 (oral), vehicle: other) was 98 % of control. The T/C (dose: 128.0 mg/kg/injection, schedule: Q01DX001 (sc), vehicle: other) was 100 % of control, the T/C (dose: 128.0 mg/kg/injection, schedule: Q01DX008 (ip), vehicle: other) was 156 % of control and the T/C (dose: 128.0 mg/kg/injection, schedule: Q01DX009 (ip), vehicle: Klucel (hydroxypropylcellulose) (HPC)) was 186 % of control. For the same compound, the T/C (dose: 128.0 mg/kg/injection, schedule: Q01DX009 (oral), vehicle: other) was 103 % of control, the T/C (dose: 128.0 mg/kg/injection, schedule: Q01DX009 (sc), vehicle: other) was 159 % of control and the T/C (dose: 128.0 mg/kg/injection, schedule: Q04DX003 (ip), vehicle: Klucel (hydroxypropylcellulose) (HPC)) was 156 % of control. The T/C (dose: 128.0 mg/kg/injection, schedule: Q04DX003 (ip), vehicle: other) was 167 % of control and 175 % of control, the T/C (dose: 128.0 mg/kg/injection, schedule: Q08DX002 (ip), vehicle: other) was 155 % of control and the T/C (dose: 130.0 mg/kg/injection, schedule: Q04DX003 (ip), vehicle: alkali diluted with saline) was 180 % of control. The T/C (dose: 144.0 mg/kg/injection, schedule: Q04DX003 (ip), vehicle: other) was 207 % of control, the T/C (dose: 150.0 mg/kg/injection, schedule: Q01DX001 (ip), vehicle: saline) was 150 % of control and the T/C (dose: 150.0 mg/kg/injection, schedule: Q04DX003 (ip), vehicle: saline) was 175 % of control. For the same compound, the T/C (dose: 200.0 mg/kg/injection, schedule: Q04DX002 (ip), vehicle: saline) was 163 % of control and 176 % of control, the T/C (dose: 200.0 mg/kg/injection, schedule: Q04DX003 (ip), vehicle: other) was 189 % of control and the T/C (dose: 216.0 mg/kg/injection, schedule: Q04DX003 (ip), vehicle: alkali diluted with saline) was 205 % of control. The T/C (dose: 256.0 mg/kg/injection, schedule: Q01DX001 (oral), vehicle: other) was 103 % of control, the T/C (dose: 256.0 mg/kg/injection, schedule: Q01DX001 (sc), vehicle: other) was 108 % of control and the T/C (dose: 256.0 mg/kg/injection, schedule: Q01DX009 (oral), vehicle: other) was 112 % of control. For the same compound, the T/C (dose: 256.0 mg/kg/injection, schedule: Q04DX003 (ip), vehicle: Klucel (hydroxypropylcellulose) (HPC)) was 156 % of control, the T/C (dose: 256.0 mg/kg/injection, schedule: Q04DX003 (ip), vehicle: other) was 206 % of control and 208 % of control and the T/C (dose: 256.0 mg/kg/injection, schedule: Q08DX002 (ip), vehicle: other) was 174 % of control. The T/C (dose: 300.0 mg/kg/injection, schedule: Q01DX001 (ip), vehicle: saline) was 166 % of control, the T/C (dose: 300.0 mg/kg/injection, schedule: Q04DX003 (ip), vehicle: saline) was 220 % of control and the T/C (dose: 400.0 mg/kg/injection, schedule: Q04DX002 (ip), vehicle: saline) was 163 % of control. The T/C (dose: 512.0 mg/kg/injection, schedule: Q01DX001 (oral), vehicle: other) was 99 % of control, the T/C (dose: 512.0 mg/kg/injection, schedule: Q01DX001 (sc), vehicle: other) was 107 % of control and the T/C (dose: 512.0 mg/kg/injection, schedule: Q01DX009 (oral), vehicle: other) was 112 % of control.
